# Measurements reported in patent US20190233899A1, “METHODS FOR SELECTING TREATMENT REGIMENS AND PREDICTING OUTCOMES IN CANCER PATIENTS” (BIOMEDICA DIAGNOSTICS INC., priority 2002, published 2019).
# How the values were obtained:
# [1] = Second study: Cox proportional hazards analysis of disease-free survival stratified by data set, primary breast cancer patients (Munich and Rotterdam, n = 3424); type: in vivo, human; conditions: for Hazard ratio (95% Confidence interval), multivariate Cox model (DFS), main effect: yes (1) vs. no (0)
# Excerpt: The second study involved a total of 3424 primary breast cancer patients from two different data sets. One set was collected from the Department of Obstetrics and Gynecology, Technical University of Munich, Germany, and the other was from the Department of Medical Oncology, Rotterdam Cancer Institute and University Hospital Rotterdam, the Netherlands. Patients had been treated for primary breast cancer between 1987 and 1999. Treatment decisions with regard to primary surgery and adjuvant systemic therapy were based primarily on consensus recommendations at the time. Treatment strategies differed between Munich and Rotterdam, particularly regarding administration of adjuvant systemic therapy to node-positive patients (Table 4b) (Harbeck et al., 2002, J. Clin. Oncology 20:1000-1009; Foekens et al., 2000, Cancer Res. 60:636-643). Of those patients treated by adjuvant chemotherapy, the majority received CMF (Rotterdam: 76%, Munich: 65%); about one-fifth in both collectives received anthracycline-containing regimens (Rotterdam: 24%, Munich: 21%); and the rest of the Munich patients were treated by other chemotherapy regimens. The endocrine treatment used in both collectives was tamoxifen.
# Median age of the patients at time of primary surgery was 56 years (range: 22-94 years). Both data sets contained established clinical and histo-morphological factors such as number of involved axillary lymph nodes, pT stage, estrogen receptor status, progesterone receptor status, exposure to adjuvant chemotherapy (CT), adjuvant endocrine therapy (HT), or adjuvant radiotherapy (RT), as well as uPA and PAI-1 measurements. Since the scoring systems for assessment of grade differed substantially between the centers and could thus represent different biological tumor characteristics, grade was not included in the combined stratified analysis. The variables were re-coded as described below in Section 6.1.3. Patients with an uncertain number of affected lymph nodes were included for computing the univariate distributions of ranked variables but not in multivariate survival analysis. Forty-five Rotterdam patients with an uncertain number of affected lymph nodes and three Munich patients with missing information on chemotherapy were not included. At the time of primary therapy, no patient had any clinical or radiological evidence of distant metastases. Follow-up data were obtained at regular intervals. Median follow-up time of all patients still alive at time of analysis was 83 months (range: 1-183 months). Within the follow-up period, 1319 patients (39%) experienced disease recurrence and 1200 patients (35%) died.
# In studies involving patients from Munich, uPA and PAI-1 antigen have been prospectively measured by ELISA (uPA: Imubind #894. PAI-1: Imubind #821; both from American Diagnostica Inc., Greenwich, Conn.) since 1987 in all primary breast cancer patients treated at our institution. (Jänicke et al., 1994, Cancer Res. 54: 2527-2530). The antigen levels in detergent extracts of breast cancer tissue are expressed as ng of analyte per mg of tissue protein. In the study involving Rotterdam patients, uPA and PAI-1 antigen were measured by ELISA, employing the same antibodies as above, in cytosol preparations of the primary tumor as described by Foekens et al., 2000, Cancer Res., 60:636-643.
# Due to differences in measurement techniques between the Munich and Rotterdam data sets, data re-coding was required. For the laboratory measurements of uPA, PAI-1, Estrogen receptor, and progesterone receptor, fractional ranks were computed with respect to each distribution. Fractional ranks also keep the variables on a convenient scale from zero to one, thus facilitating comparison of the […] coefficients of different factors. In particular, ranked estrogen receptor and progesterone receptor measurements were included as continuous variables in the statistical models, even though biochemical and immunohistochemical assays were used. […]
# [2] = First study: Cox proportional hazards analysis of disease-free survival in primary breast cancer patients (n = 761, Munich); type: in vivo, human; conditions: primary breast cancer n = 761, median follow-up 48 months; therapy yes vs no
# Excerpt: The first study evaluated the clinical relevance of the combination of uPA and PAI-1 in 761 individual primary breast cancer patients (Table 3). Patients either underwent a modified radical mastectomy (n=389) or breast conserving surgery with subsequent breast irradiation (n=372) at the Department of Obstetrics and Gynecology, Technical University of Munich, Germany, between 1987 and 1998. Informed consent for analysis of tumor biological factors was obtained at primary surgery. Therapy decisions were based solely on consensus recommendations at the time but not on uPA and PAI-1. For 745 patients, information on adjuvant systemic therapy was available (Table 3). Median age of the patients at time of primary surgery was 56 years (range: 28-92 years). […] In addition to the collective as a whole, the subset of node-negative patients without adjuvant systemic therapy (n=269; median follow-up 60 months) was analyzed separately (Table 3). […]
# In studies involving patients from Munich, uPA and PAI-1 antigen have been prospectively measured by ELISA (uPA: Imubind #894. PAI-1: Imubind #821; both from American Diagnostica Inc., Greenwich, Conn.) since 1987 in all primary breast cancer patients treated at our institution. […] The antigen levels in detergent extracts of breast cancer tissue are expressed as ng of analyte per mg of tissue protein. […]
structure (smiles),measurement,setting,value
"CC/C(=C(\c1ccccc1)c1ccc(OCCN(C)C)cc1)c1ccccc1 [Adjuvant endocrine therapy, tamoxifen]","HR (DFS) of therapy, separate Cox model","[1]; 0-3 affected lymph nodes, high-uPA/PAI-1 subgroup n=1174",0.51 (0.33-0.78)
same,"95% CI for the HR (DFS) of therapy, separate Cox model","[1]; 0-3 affected lymph nodes, low-uPA/PAI-1 group n=1418, not significant",0.59-1.44
same,"HR (DFS) of therapy, separate Cox regression (2-stage model)","[1]; 4 or more affected nodes, low-uPA/PAI-1 subgroup","0.62 (95% CI, 0.43-0.90)"
same,"HR (DFS) of therapy, separate Cox regression model","[1]; 4 or more nodes, high uPA/PAI-1","0.68 (95% CI, 0.49-0.95)"
same,"Hazard ratio (95% Confidence interval), multivariate Cox model (DFS), main effect","[1]; all patients n = 3,376",0.68 (0.56-0.82)
same,"Hazard ratio (95% Confidence interval), multivariate Cox model (DFS), main effect","[1]; all patients n = 3,376, listed as HT",0.68
same,"HR (DFS) due to therapy, separate multivariate Cox model","[1]; all patients, high-uPA/PAI-1 subgroup",0.63
same,"HR (DFS) due to therapy, separate multivariate Cox model","[1]; all patients, low-uPA/PAI-1 subgroup",0.74
same,95% CI for HR of interaction HT with uPA/PAI-1 (DFS),"[1]; all patients, no significant interaction",0.66-1.28
same,"Hazard ratio (95% Confidence interval), multivariate Cox model (DFS), main effect",[1]; patients with 0-3 involved axillary nodes n = 2592,0.66 (0.48-0.90)
same,"Hazard ratio (95% Confidence interval), multivariate Cox model (DFS), main effect",[1]; patients with 4 or more involved axillary nodes n = 784,0.68 (0.53-0.87)
same,Disease-free survival (DFS) multivariate Relative risk (95% Confidence interval),[2],0.5 (0.3-0.7)
